Results taken from PMC7710018, “Restoration of motor learning in a mouse model of Rett syndrome following long-term treatment with a novel small-molecule activator of TrkB” (Disease Models & Mechanisms, 2020).
Like-named read-outs stand apart in the source and are kept apart here.

Legend:
Experiment in all cases: Cerep ExpresSProfile radioligand binding
5-HT transporter (h) = target: T1, 5-HT transporter (h) (Homo sapiens, UniProt P31645); conditions: 10 micromolar, antagonist radioligand
T1 construct: Cerep, Inc. (contract screen)
T1 sequence (P31645 whole entry): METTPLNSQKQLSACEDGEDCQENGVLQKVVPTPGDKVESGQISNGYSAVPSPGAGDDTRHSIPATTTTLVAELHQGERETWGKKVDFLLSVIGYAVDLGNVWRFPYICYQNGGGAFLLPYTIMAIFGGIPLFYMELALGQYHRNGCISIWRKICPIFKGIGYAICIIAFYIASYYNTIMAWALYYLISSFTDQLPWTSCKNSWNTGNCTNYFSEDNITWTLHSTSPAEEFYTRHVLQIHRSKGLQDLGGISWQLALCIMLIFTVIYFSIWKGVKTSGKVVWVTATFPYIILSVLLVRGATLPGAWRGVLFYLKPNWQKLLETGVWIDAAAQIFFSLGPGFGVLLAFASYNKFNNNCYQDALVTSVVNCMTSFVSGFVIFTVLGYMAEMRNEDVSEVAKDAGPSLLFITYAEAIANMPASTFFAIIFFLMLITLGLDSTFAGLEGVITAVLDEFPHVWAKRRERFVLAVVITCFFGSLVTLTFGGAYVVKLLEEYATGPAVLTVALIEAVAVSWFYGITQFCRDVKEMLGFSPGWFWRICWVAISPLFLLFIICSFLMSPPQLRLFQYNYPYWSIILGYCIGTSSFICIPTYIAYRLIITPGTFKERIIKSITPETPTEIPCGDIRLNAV
Method: (§1) To evaluate the relative binding specificity of LM22A-4 ([Massa et al., 2010]) and PTX-BD4-3, binding to a broad range of 55 pharmacologically relevant receptors, including numerous neurotransmitter and G-protein coupled receptors was assessed using standard radioligand competition binding assays (ExpressSProfile) performed by Cerep, Inc. (Seattle, WA, USA). In addition, ADME-Tox analysis was performed by Cerep, Inc. All experimental conditions are described on the Cerep website (www.cerep.fr). […]
(§2) Table S1. In vitro binding assays. An ExpresSProfile screen of PTX-BD4-3 binding to a panel of pharmacologically relevant receptors was conducted by Cerep, Inc.
(§3) (Eurofins Panlabs, MO). The results are expressed as percent inhibition of control specific binding obtained in the presence of 10 micromolar PTX-BD4-3. In this assay, values below 50% indicate no specific binding of PTX-BD4-3. The assay was negative for PTX-BD4-3 binding to all of the 55 receptors in the screen.
(§4) (also on this page, place not known: 2B 5‐HT 3 5‐HT 5a 5‐HT 6 5‐HT 7 (agonis t VPAC 1 V 1 Ca 2+ K V SK Ca Na + Cl ‐ 5‐HT Disease Models & Mechanisms: doi:10.1242/dmm.044685: Supplementary information Disease Models & Mechanisms • Supplementary information)

5-HT2B (h) = target: T2, 5-HT2B (h) (Homo sapiens, UniProt P41595); conditions: 10 micromolar, agonist radioligand
T2 construct: Cerep, Inc. (contract screen)
T2 sequence (P41595 whole entry): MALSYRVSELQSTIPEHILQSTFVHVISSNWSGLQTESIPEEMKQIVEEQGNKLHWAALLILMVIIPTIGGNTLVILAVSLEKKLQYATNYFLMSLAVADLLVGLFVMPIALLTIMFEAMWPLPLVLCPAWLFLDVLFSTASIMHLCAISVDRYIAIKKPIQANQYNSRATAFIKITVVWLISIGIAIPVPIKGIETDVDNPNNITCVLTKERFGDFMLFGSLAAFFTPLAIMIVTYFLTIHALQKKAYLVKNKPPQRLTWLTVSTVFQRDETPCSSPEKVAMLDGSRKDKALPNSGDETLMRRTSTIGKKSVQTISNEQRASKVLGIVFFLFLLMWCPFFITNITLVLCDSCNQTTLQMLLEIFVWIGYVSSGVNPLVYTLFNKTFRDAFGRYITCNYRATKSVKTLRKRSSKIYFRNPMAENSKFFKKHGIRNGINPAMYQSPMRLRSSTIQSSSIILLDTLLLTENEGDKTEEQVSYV
Method: as §1, §2, §3, §4

5-HT3 (h) = target: T3, 5-HT3 (h) (Homo sapiens, UniProt P46098); conditions: 10 micromolar, antagonist radioligand
T3 construct: Cerep, Inc. (contract screen)
T3 sequence (P46098 24-478): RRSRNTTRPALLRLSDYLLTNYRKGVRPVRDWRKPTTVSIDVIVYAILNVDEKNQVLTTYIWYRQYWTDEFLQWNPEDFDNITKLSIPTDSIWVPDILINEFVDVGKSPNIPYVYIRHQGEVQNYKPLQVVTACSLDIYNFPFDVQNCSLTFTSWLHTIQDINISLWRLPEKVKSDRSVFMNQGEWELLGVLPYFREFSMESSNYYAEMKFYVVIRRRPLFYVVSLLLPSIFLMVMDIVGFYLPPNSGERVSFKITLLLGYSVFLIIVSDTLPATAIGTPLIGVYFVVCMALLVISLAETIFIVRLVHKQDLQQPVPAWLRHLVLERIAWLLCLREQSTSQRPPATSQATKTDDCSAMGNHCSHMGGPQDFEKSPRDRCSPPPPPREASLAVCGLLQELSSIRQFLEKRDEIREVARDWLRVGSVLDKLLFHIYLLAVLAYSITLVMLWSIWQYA
Method: as §1, §2, §3, §4

5-HT7 (h) = target: T4, 5-HT7 (h) (Homo sapiens, UniProt P34969); conditions: 10 micromolar, agonist radioligand
T4 construct: Cerep, Inc. (contract screen)
T4 sequence (P34969 whole entry): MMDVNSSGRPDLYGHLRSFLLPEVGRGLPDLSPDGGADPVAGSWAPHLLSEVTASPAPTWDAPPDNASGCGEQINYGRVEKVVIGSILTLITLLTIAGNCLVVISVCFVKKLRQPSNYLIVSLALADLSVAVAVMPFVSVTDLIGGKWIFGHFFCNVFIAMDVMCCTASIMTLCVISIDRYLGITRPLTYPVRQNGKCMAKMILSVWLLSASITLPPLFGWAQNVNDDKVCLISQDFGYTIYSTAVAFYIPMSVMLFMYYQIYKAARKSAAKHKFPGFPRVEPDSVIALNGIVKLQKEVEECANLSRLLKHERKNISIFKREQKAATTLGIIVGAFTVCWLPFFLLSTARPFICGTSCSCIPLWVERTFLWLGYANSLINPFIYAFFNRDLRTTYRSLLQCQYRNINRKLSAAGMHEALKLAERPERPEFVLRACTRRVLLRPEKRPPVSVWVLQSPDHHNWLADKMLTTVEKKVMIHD
Method: as §1, §2, §3, §4

[1] = tested on: Ca2+ channel (L, verapamil site) (phenylalkylamine); conditions: 10 micromolar; antagonist radioligand
Method: as §1, §2, §3, §4

Cl- channel (GABA-gated) = conditions: 10 micromolar; antagonist radioligand
Method: as §1, §2, §3, §4

H2 (h) = target: T5, H2 (h) (Homo sapiens, UniProt P25021); conditions: 10 micromolar; antagonist radioligand; read-out: % Inhibition of Control Specific Binding 1st
T5 construct: purchased Cerep (ExpresSProfile)
Method: as §1, §2, §3, §4

KV channel = conditions: 10 micromolar; antagonist radioligand
Method: as §1, §2, §3, §4

M2 (h) = target: T6, M2 (h) (Homo sapiens, UniProt P08172); conditions: 10 micromolar; antagonist radioligand; read-out: % Inhibition of Control Specific Binding 1st
T6 construct: purchased Cerep (ExpresSProfile)
T6 sequence (P08172 whole entry): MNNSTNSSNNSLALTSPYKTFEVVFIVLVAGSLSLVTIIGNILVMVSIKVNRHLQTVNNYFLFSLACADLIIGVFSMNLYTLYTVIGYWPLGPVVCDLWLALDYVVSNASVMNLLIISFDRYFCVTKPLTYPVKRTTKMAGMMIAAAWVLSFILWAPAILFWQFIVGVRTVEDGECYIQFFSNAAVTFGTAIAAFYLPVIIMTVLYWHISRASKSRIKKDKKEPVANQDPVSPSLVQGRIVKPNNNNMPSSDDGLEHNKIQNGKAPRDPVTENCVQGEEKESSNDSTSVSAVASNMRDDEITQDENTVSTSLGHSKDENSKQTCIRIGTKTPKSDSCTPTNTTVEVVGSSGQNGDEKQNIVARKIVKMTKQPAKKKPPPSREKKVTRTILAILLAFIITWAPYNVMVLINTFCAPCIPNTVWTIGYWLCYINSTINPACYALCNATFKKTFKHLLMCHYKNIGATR
Method: as §1, §2, §3, §4

M3 (h) = target: T7, M3 (h) (Homo sapiens, UniProt P20309); conditions: 10 micromolar; antagonist radioligand; read-out: % Inhibition of Control Specific Binding 2nd
T7 construct: purchased Cerep (ExpresSProfile)
Method: as §1, §2, §3, §4

NK3 (h) = target: T8, NK3 (h) (Homo sapiens, UniProt P29371); conditions: 10 micromolar; antagonist radioligand; read-out: % Inhibition of Control Specific Binding 2nd
T8 construct: purchased Cerep (ExpresSProfile)
Method: as §1, §2, §3, §4

NOP (ORL1) (h) = target: T9, NOP (ORL1) (h) (Homo sapiens, UniProt P41146); conditions: 10 micromolar, agonist radioligand
T9 construct: purchased Cerep (ExpresSProfile)
T9 sequence (P41146 whole entry): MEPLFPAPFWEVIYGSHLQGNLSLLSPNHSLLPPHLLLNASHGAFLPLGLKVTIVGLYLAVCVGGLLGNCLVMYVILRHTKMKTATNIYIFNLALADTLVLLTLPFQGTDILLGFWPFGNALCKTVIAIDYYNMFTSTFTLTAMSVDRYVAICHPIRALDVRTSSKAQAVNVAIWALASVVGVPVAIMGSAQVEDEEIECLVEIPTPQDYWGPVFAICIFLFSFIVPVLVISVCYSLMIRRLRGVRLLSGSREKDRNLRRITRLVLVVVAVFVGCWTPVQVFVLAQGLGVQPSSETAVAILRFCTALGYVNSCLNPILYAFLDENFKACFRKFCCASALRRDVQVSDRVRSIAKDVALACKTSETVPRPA
Method: as §1, §2, §3, §4

NTS1 (NT1) (h) = target: T10, NTS1 (NT1) (h) (Homo sapiens, UniProt P30989); conditions: 10 micromolar, agonist radioligand
T10 construct: purchased Cerep (ExpresSProfile)
T10 sequence (P30989 whole entry): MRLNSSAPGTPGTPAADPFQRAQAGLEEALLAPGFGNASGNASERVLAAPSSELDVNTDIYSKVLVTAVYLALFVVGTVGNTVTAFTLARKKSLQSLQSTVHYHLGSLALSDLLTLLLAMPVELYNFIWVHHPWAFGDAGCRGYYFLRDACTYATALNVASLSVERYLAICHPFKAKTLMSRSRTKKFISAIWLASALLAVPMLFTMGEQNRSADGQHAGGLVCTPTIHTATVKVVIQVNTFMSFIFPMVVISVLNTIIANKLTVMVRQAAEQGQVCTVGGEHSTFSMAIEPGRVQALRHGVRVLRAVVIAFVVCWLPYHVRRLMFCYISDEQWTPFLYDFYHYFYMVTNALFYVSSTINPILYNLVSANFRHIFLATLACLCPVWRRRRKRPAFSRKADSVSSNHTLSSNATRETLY
Method: as §1, §2, §3, §4

Na+ channel (site 2) = conditions: 10 micromolar; antagonist radioligand
Method: as §1, §2, §3, §4

dopamine transporter (h) = target: T11, dopamine transporter (h) (Homo sapiens, UniProt Q01959); conditions: 10 micromolar, antagonist radioligand
T11 construct: Cerep, Inc. (contract screen)
T11 sequence (Q01959 whole entry): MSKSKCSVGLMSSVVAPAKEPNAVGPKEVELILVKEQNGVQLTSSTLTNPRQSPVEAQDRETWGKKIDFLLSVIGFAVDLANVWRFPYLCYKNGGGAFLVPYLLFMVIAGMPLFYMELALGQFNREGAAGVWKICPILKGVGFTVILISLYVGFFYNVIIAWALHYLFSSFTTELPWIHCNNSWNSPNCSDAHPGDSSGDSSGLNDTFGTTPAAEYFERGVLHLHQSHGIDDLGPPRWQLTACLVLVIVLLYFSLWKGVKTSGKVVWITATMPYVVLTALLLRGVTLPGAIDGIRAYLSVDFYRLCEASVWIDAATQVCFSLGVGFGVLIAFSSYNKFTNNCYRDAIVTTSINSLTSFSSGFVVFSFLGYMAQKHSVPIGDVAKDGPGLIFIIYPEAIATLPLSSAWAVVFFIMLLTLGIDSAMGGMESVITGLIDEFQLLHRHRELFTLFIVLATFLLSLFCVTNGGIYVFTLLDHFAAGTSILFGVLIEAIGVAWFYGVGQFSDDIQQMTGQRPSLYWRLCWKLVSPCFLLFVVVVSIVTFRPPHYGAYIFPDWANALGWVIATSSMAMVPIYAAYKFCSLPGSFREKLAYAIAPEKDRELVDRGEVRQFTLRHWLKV
Method: as §1, §2, §3, §4

[2] = target: T12, norepinephrine transporter (h) (Homo sapiens, UniProt P23975); conditions: 10 micromolar, antagonist radioligand
T12 construct: Cerep, Inc. (contract screen)
T12 sequence (P23975 whole entry): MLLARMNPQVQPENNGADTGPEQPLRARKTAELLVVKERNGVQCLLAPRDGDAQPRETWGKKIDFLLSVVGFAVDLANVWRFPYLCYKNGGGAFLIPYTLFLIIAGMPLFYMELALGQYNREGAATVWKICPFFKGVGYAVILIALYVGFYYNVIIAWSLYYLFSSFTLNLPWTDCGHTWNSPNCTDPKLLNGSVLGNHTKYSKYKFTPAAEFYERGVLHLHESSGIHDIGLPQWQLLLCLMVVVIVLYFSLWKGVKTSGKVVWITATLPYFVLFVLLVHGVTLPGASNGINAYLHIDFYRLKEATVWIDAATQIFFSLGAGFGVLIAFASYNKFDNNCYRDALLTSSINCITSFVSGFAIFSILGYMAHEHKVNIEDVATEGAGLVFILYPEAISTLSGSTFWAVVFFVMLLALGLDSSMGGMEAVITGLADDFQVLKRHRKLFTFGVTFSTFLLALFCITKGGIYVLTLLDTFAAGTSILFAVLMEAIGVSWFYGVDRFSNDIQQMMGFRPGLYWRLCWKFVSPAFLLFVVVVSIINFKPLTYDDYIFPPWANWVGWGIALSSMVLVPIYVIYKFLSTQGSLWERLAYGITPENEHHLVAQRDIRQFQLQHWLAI
Method: as §1, §2, §3, §4

sst (non-selective) = conditions: 10 micromolar; agonist radioligand
Method: as §1, §2, §3, §4

α1 (non-selective) = conditions: 10 micromolar; antagonist radioligand
Method: as §1, §2, §3, §4

α2 (non-selective) = conditions: 10 micromolar; antagonist radioligand
Method: as §1, §2, §3, §4

β1 (h) = target: T13, β1 (h) (Homo sapiens, UniProt P08588); conditions: 10 micromolar; agonist radioligand; read-out: % Inhibition of Control Specific Binding 1st
T13 construct: purchased Cerep (ExpresSProfile)
T13 sequence (P08588 whole entry): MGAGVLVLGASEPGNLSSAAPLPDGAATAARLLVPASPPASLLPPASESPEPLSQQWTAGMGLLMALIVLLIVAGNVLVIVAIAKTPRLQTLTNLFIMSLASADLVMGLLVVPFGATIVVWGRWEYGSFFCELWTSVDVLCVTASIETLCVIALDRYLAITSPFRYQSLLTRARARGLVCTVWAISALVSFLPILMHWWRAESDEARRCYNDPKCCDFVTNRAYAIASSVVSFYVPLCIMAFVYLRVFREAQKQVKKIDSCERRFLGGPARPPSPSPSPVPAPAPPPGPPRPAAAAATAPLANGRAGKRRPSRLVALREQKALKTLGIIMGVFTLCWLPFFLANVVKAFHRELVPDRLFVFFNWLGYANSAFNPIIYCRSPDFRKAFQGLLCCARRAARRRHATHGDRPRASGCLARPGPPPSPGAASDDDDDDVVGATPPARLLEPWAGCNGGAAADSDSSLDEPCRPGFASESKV
Method: as §1, §2, §3, §4

δ2 (DOP) (h) = target: T14, δ2 (DOP) (h) (Homo sapiens, UniProt P41143); conditions: 10 micromolar; agonist radioligand; read-out: % Inhibition of Control Specific Binding 2nd
T14 construct: purchased Cerep (ExpresSProfile)
T14 sequence (P41143 whole entry): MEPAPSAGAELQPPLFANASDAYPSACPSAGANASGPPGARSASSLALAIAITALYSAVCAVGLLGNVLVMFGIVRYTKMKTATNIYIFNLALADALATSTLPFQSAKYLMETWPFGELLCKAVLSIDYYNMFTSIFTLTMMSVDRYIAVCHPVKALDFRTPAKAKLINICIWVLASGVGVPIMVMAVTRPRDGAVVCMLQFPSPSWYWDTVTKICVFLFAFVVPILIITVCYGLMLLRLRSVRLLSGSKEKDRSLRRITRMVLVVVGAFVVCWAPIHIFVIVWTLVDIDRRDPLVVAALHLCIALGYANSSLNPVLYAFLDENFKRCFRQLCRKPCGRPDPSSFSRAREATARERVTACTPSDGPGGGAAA
Method: as §1, §2, §3, §4

κ (KOP) = target: T15, κ (KOP) (Rattus norvegicus, UniProt P34975); conditions: 10 micromolar; agonist radioligand; read-out: % Inhibition of Control Specific Binding 1st
T15 construct: purchased Cerep (ExpresSProfile)
Method: as §1, §2, §3, §4

[3] = read-out: % Inhibition of Control Specific Binding 1st
[4] = read-out: % Inhibition of Control Specific Binding 2nd
[5] = read-out: % Inhibition of Control Specific Binding Mean

COCCN(C)C(=O)c1cc(C(=O)N(C)CCOC)cc(C(=O)N(C)CCOC)c1 [PTX-BD4-3, benzene-1,3,5-tricarboxylic acid tris-[(2-methoxy-ethyl)-methyl-amide]]
inhibition at 10 µM (5-HT transporter (h); [3]): 16.3%
inhibition at 10 µM (5-HT transporter (h); [4]): 5.5%
inhibition at 10 µM (5-HT transporter (h); [5]): 10.9%
inhibition at 10 µM (5-HT2B (h); [3]): 12.6%
inhibition at 10 µM (5-HT2B (h); [5]): 3.5%
inhibition at 10 µM (5-HT3 (h); [3]): 6.9%
inhibition at 10 µM (5-HT3 (h); [4]): 13.4%
inhibition at 10 µM (5-HT3 (h); [5]): 10.1%
inhibition at 10 µM (5-HT7 (h); [3]): 8.1%
inhibition at 10 µM (5-HT7 (h); [4]): 14.7%
inhibition at 10 µM (5-HT7 (h); [5]): 11.4%
% Inhibition of Control Specific Binding 1st [1]: 0%
% Inhibition of Control Specific Binding 1st (Cl- channel (GABA-gated)): 2.7%
inhibition at 10 µM (H2 (h)): 2.8%
% Inhibition of Control Specific Binding 1st (KV channel): 6.4%
inhibition at 10 µM (M2 (h)): 6.3%
inhibition at 10 µM (M3 (h)): 0.8%
inhibition at 10 µM (NK3 (h)): 0.4%
inhibition at 10 µM (NOP (ORL1) (h); [4]): 6.3%
inhibition at 10 µM (NOP (ORL1) (h); [5]): 0.1%
inhibition at 10 µM (NTS1 (NT1) (h); [3]): 11.2%
inhibition at 10 µM (NTS1 (NT1) (h); [4]): 2.6%
inhibition at 10 µM (NTS1 (NT1) (h); [5]): 6.9%
% Inhibition of Control Specific Binding 1st (Na+ channel (site 2)): 0.6%
% Inhibition of Control Specific Binding 2nd (Na+ channel (site 2)): 11.7%
% Inhibition of Control Specific Binding Mean (Na+ channel (site 2)): 6.1%
inhibition at 10 µM (dopamine transporter (h); [3]): 2.2%
inhibition at 10 µM (dopamine transporter (h); [4]): 0.9%
inhibition at 10 µM (dopamine transporter (h); [5]): 1.6%
inhibition at 10 µM [2, 3]: 5.1%
inhibition at 10 µM [2, 4]: 1.1%
inhibition at 10 µM [2, 5]: 3.1%
% Inhibition of Control Specific Binding 1st (sst (non-selective)): 5.7%
% Inhibition of Control Specific Binding Mean (sst (non-selective)): 0.3%
% Inhibition of Control Specific Binding 1st (α1 (non-selective)): 0.9%
% Inhibition of Control Specific Binding 1st (α2 (non-selective)): 1.8%
% Inhibition of Control Specific Binding 2nd (α2 (non-selective)): 4.7%
% Inhibition of Control Specific Binding Mean (α2 (non-selective)): 3.2%
inhibition at 10 µM (β1 (h)): 3.7%
inhibition at 10 µM (δ2 (DOP) (h)): 1.9%
inhibition at 10 µM (κ (KOP)): 0.9%
